Data reported in US10837062B2, “Method for predicting a treatment response to a CRHR1 antagonist and/or a V1B antagonist in a patient with depressive and/or anxiety symptoms” (Max-Planck-Gesellschaft zur Förderung der Wissenschaften …, priority 2013, dated 2020).

What was measured:
control littermates (CL) [1] = assay: REMS activity by EEG/EMG sleep recording in control littermates (CL) of Cor26 CRH mice; assay type: in vivo; conditions: CL animals of Cor26 CRH line; 50 mg/kg/d via drinking water
Protocol: (§1) Experiments were conducted with two different mouse lines of excessive central CRH secretion and their respective control littermates (CL). Mice of the CRH-COE^CNS line are characterised by CRH-overexpression within the whole CNS, whereas mice of the Cor26 CRH line display a CRH-overexpression specific to CRH-ergic neurons of the CNS. Three different CRHR1 antagonists were tested. […] In all cases, animals were left to recover from EEG/EMG-electrode implantation for two weeks, after which two days of baseline recording were initiated. Treatment with CRH-R1 antagonist or respective vehicle control commenced thereafter for five consecutive days. Antagonists were applied through the drinking water at a daily dose of 50 mg/kg body weight. EEG and EMG recordings were manually scored as wake, non-REMS (NREMS), and REMS in four second epochs by an experienced evaluator.

Cor26 CRH mice = assay: REMS activity by EEG/EMG sleep recording in Cor26 CRH mice; conditions: for REMS levels / REMS activity: CRH-overexpressing Cor26 CRH mice, 50 mg/kg/d via drinking water
control littermates (CL) [2] = assay: REMS activity by EEG/EMG sleep recording in control littermates (CL) of CRH-COE^CNS mice; assay type: in vivo; conditions: CL mice of CRH-COE^CNS line; 50 mg/kg/d via drinking water
Protocol: as §1

CRH-COE^CNS mice = assay: REMS activity by EEG/EMG sleep recording in CRH-COE^CNS mice; conditions: for REMS activity: 50 mg/kg/d via drinking water, treatment days vs baseline, significant from treatment day two (DMP-696 P<0.05; SSR125543 P≤0.035)

Compound	REMS levels in control littermates (control littermates (CL) [1])	REMS levels / REMS activity (Cor26 CRH mice; 50 mg/kg/day)	REMS levels / REMS activity (Cor26 CRH mice; listed as CP-316311, 50 mg/kg/day)	REMS levels, area under the curve (AUC) within the light period (Cor26 CRH mice; Cor26 CRH mice, baseline vs treatment day three, P=0.006)	REMS activity in control littermates (control littermates (CL) [2])	treatment day of strongest suppression of REMS activity (CRH-COE^CNS mice; CRH-COE^CNS animals, 50 mg/kg/d)	REMS suppression relative to baseline REMS-levels of CL (CRH-COE^CNS mice; CRH-COE^CNS mice, 50 mg/kg/d)	REMS activity (CRH-COE^CNS mice; CRH-COE^CNS mice, 50 mg/kg/day)	REMS activity (CRH-COE^CNS mice; CRH-COE^CNS mice, listed as DMP696, 50 mg/kg/day)
CCC(CC)Oc1cc(C)nc(Oc2c(C)cc(C)cc2C)c1C [CP-316,311]	no significant effect	weak	suppressed	significant decrease	–	–	–	–	–
COCC(COC)Nc1nc(C)nc2c(-c3ccc(Cl)cc3Cl)c(C)nn12 [DMP-696]	–	–	–	–	only a mild suppression	treatment day three	never exceeded baseline REMS-levels of CL	significant decrease	suppressed
